Measurements published in patent US12612622B2, “Targeted mutagenesis using base editors” (Qi Biodesign Biotechnology Company Limited, priority 2018, dated 2026).
Read-outs that look alike come from different tables or passages of the source.

Experiments:
[1] = tested on: rice seedlings with OsACC mutations
From the text: The herbicide was applied with pressurized equipment at 0.2 MPa and a spray volume of 450 L/ha. Three weeks later, surviving seedlings were identified.

OsACC = assay: Saturated de novo mutagenesis of OsACC CT domain in rice protoplasts, 20 sgRNAs; type: cell-based
From the text: To test the ability of STEME to achieve saturated de novo mutagenesis in rice protoplasts, it has been taken acetyl-coenzyme A carboxylase (OsACC) as an example. ACC is a key enzyme in lipid biosynthesis and its carboxyltransferase (CT) domain is the target of herbicides (FIG. 5 b). Amino acid substitutions in the CT domain can confer herbicides resistance on grass. 20 sgRNAs has been designed, including 11 sgRNAs with forward direction NGD-3′ PAMs and 9 with reverse complement 5′-HCN (H=A, T or C) PAMs spanning a 168 bp DNA sequence that encodes 56 amino acids of the CT domain (FIG. 5b). Using STEME-NG, the sgRNAs covered 90.32% of the cytosines, 40.43% of the adenines, 77.78% of the guanines, and 38.89% of the thymines in the editing windows, corresponding in all to 61.31% of the bases of the coding strand. These sgRNAs has been co-transfected individually together with STEME-NG into rice protoplasts. A3A-PBE-NG and pCas9-NG served as controls. […] No base conversions were detected in the untreated control.
We also analyzed the amino acid substitutions generated by STEME-NG in the targeted 56 amino acids. […] Of these, twenty-four, twelve, and five amino acids had one, two, and three kinds of amino acids substitution, respectively. […] Similarly, A3A-PBE-NG mutated 33 amino acids, of which twenty-six, six, and one contained one, two, and three kinds of amino acids substitution, respectively. […] Thus, it promises to be a powerful tool for directed evolution of endogenous genes by saturated de novo mutagenesis in situ.
We used the Japonica rice variety Nipponbare to prepare protoplasts. Protoplast isolation and transformation were performed as described (Shan, Q. et al. Rapid and efficient gene modification in rice and Brachypodium using TALENs. Mol. Plant 6, 1365-1368 (2013).). 10 μg each of nuclease and sgRNA plasmid DNA were introduced into the protoplasts by PEG-mediated transfection, with a mean transformation efficiency of 40-55% as measured by hemocytometer. The transfected protoplasts were incubated at 23° C. and 60 h post-transfection they were collected and genomic DNA extracted for amplicon deep sequencing.
DNA extraction. The genomic DNA of protoplasts was extracted with a DNA-Quick Plant System (Tiangen Biotech, Beijing, China). Genomic DNA of regenerated rice seedlings was extracted with CTAB, and all the seedlings in each group were sampled together. The targeted site was amplified with specific primers, and the amplicons were purified with an EasyPure PCR Purification Kit (TransGen Biotech, Beijing, China), and quantified with a NanoDrop™ 2000 Spectrophotometer (Thermo Fisher Scientific, Waltham, MA, USA).

OsACCase gene = assay: Base editing (pZRH-PBE + individual sgRNAs) of OsACCase functional domain in transgenic M0 rice plants; type: in vivo; details: for Frequency of indel (%) / Frequency of substitution (%) / No. of WT / No. of indel / No. of substitution: transgenic M0 plants; for No. of WT / No. of indel / No. of substitution: per sgRNA target
From the text: For individual cloning, the following method is used. APOBEC1, partial nCas9 and UGI sequences (SEQ ID NO: 129) without BsaI were synthesized commercially (GenScript, Nanjing, China) and cloned into the pUC57 (SEQ ID NO: 130) as intermediate vector. […] The full length APOBEC1-nCas9-UGI was excised using XmaJI and SacI, then was subcloned into pHUE411 that had been digested using the same two enzymes. The resultant vector pZRH-PBE (SEQ ID NO: 133) was used to construct sgRNA expression plasmids using restriction enzyme site BsaI.

[2] = edited allele with the substitution of the same table line

Compound | No. of alleles (OsACCase gene; [2]) | Frequency of indel (%) (OsACCase gene) | Frequency of substitution (%) (OsACCase gene) | No. of WT (OsACCase gene) | No. of indel (OsACCase gene) | No. of substitution (OsACCase gene) | No. of alleles (OsACCase gene; unedited target site sequence) | further results
CC(Oc1ccc(Oc2ncc(C(F)(F)F)cc2Cl)cc1)C(=O)O (centres unmarked) [haloxyfop] |  |  |  |  |  |  |  | herbicide resistance of seedlings ([1]; Group 2 seedlings, S1866F heterozygotes): slightly weaker haloxyfop resistance; herbicide resistance of seedlings ([1]; Group 3 seedlings, A1884P heterozygotes): slightly weaker haloxyfop resistance; herbicide resistance of seedlings ([1]; Group 6 seedlings carrying P1927F, spray 34 g active ingredient ha-1, three weeks): clearly herbicide resistant; herbicide resistance of seedlings ([1]; Group 20 seedlings carrying W2125C, spray 34 g active ingredient ha-1, three weeks): clearly herbicide resistant
A3A-PBE-NG: A3A-PBE with nCas9-NG (D10A); protein SEQ ID NO: 186 |  |  |  |  |  |  |  | amino acids with one kind of amino acid substitution (OsACC): twenty-six; amino acids with three kinds of amino acid substitution (OsACC): one; amino acids with two kinds of amino acid substitution (OsACC): six; A>G or T>C substitutions (OsACC; coding strand): no A>G or T>C substitutions were found; Cs converted to Ts in the covered bases (OsACC; coding strand): 89.29%; Gs converted to As in the covered bases (OsACC; coding strand): 92.86%; amino acids substituted (OsACC; of the targeted 56 amino acids, silent, missense, nonsense): 33; indels (OsACC; rice protoplasts, 20 sgRNAs): < 0.01%
R39: sgRNA in pZRH-PBE; OsACCase target site CCGTTGGACCCACCGGACAGACC (SEQ ID NO: 125) (expressed or natural sequence; target site or template, no part of the molecule) | 1 | 50.0 | 25.0 | 1 | 2 | 1 | 1 | 
R40: sgRNA in pZRH-PBE; OsACCase target site CCTATTATTCTTACAGGCTATTC (SEQ ID NO: 127) (chemistry not fully specified; the letters are possibly those of the target site) | 1 | 6.7 | 13.3 | 12 | 1 | 2 | 1 | 
